From patent US20230017539A1, “TRI-HETEROCYCLIC COMPOUND AS JAK INHIBITOR, AND USE THEREOF” (CHIA TAI TIANQING PHARMACEUTICAL GROUP CO., LTD., priority 2019, published 2023) come the findings set out here.

One test deals with T1, JAK2(h) (Homo sapiens, UniProt O60674).
T1 construct: purchased Eurofins, UK
The test is described as follows: In vitro activity assay of JAK2 kinase (radiometric, [γ-33P]-ATP). Format: biochemical. The following applies: recombinant human JAK2, 40 min at room temperature. The protocol:
(§1) Recombinant human JAK1, JAK2, JAK3 and Tyk2 […], and main instruments and reagents were all provided by Eurofins, UK.
(§2) Dilution of JAK2, JAK3 and TYK2: 20 mM 3-(N-morpholino)propanesulfonic acid (MOPS), 1 mM EDTA, 0.01% Brij-35.5% glycerol, 0.1% β-mercaptoethanol, and 1 mg/mL BSA; dilution of JAK1: 20 mM TRIS, 0.2 mM EDTA, 0.1% β-mercaptoethanol, and 0.01% Brij-35.5% glycerol. All compounds were prepared as 100% DMSO solutions, and the concentration was brought to 50 times the final assay concentration. A test compound was diluted with a 3-fold gradient, with a total of 9 final concentrations ranging from 10 μM to […]. The DMSO content in the assay reaction was 2%. The working stock solution of the compound was added into the assay wells as a first component of the reaction, and the remaining components were then added according to the protocol detailed for the assay below.
JAK2(h) was incubated with 8 mM MOPS pH 7.0, 0.2 mM EDTA, 100 μM […] (SEQ ID NO: 2), 10 mM magnesium acetate and [γ-^33P]-ATP (the activity and concentration were tailored as required). The reaction was started by adding a Mg/ATP mixture, and terminated by adding 0.5% phosphoric acid after 40 min of incubation at room temperature. 10 μL of the reactant was then dotted on a P30 filter pad, washed three times with 0.425% phosphoric acid and once with methanol within 4 minutes, and dried, and scintillation counting was performed.
(§3) The IC50 results were obtained by analysis using XLFITS (formula 205) of IDBS company and detailed in Table 1.

The target of a further test is T2, TYK2(h) (Homo sapiens, UniProt P29597).
T2 construct: purchased Eurofins, UK
In words: In vitro activity assay of TYK2 kinase (radiometric, [γ-33P]-ATP). Conditions: recombinant human Tyk2, 40 min at room temperature. It is filed as biochemical. The protocol: as §1, §2
TYK2(h) was incubated with 8 mM MOPS pH 7.0, 0.2 mM EDTA, 250 μM GGMEDIYFEFMGGKKK (SEQ ID NO:4), 10 mM magnesium acetate and [γ-^33P]-ATP (the activity and concentration were tailored as required). The reaction was started by adding a Mg/ATP mixture, and terminated by adding 0.5% phosphoric acid after 40 min of incubation at room temperature. 10 μL of the reactant was then dotted on a P30 filter pad, washed three times with 0.425% phosphoric acid and once with methanol within 4 minutes, and dried, and scintillation counting was performed.
as §3

In the next test the target is T3, JAK1(h) (Homo sapiens, UniProt P23458).
T3 construct: purchased Eurofins, UK
The test is described as follows: In vitro activity assay of JAK1 kinase (radiometric, [γ-33P]-ATP). The following applies: recombinant human JAK1, 40 min at room temperature. Format: biochemical. The protocol:
as §1, §2
JAK1(h) was incubated with 20 mM Tris/HC pH 7.5, 0.2 mM EDTA, 500 μM MGEEPLYWSFPAKKK (SEQ ID NO: 1), 10 mM magnesium acetate and [γ-^33P]-ATP (the activity and concentration were tailored as required). The reaction was started by adding a Mg/ATP mixture, and terminated by adding 0.5% phosphoric acid after 40 min of incubation at room temperature. 10 μL of the reactant was then dotted on a P30 filter pad, washed three times with 0.425% phosphoric acid and once with methanol within 4 minutes, and dried, and scintillation counting was performed.
as §3

The target in a further test is T4, JAK3(h) (Homo sapiens, UniProt P52333).
T4 construct: purchased Eurofins, UK
T4 sequence (P52333 1-1124): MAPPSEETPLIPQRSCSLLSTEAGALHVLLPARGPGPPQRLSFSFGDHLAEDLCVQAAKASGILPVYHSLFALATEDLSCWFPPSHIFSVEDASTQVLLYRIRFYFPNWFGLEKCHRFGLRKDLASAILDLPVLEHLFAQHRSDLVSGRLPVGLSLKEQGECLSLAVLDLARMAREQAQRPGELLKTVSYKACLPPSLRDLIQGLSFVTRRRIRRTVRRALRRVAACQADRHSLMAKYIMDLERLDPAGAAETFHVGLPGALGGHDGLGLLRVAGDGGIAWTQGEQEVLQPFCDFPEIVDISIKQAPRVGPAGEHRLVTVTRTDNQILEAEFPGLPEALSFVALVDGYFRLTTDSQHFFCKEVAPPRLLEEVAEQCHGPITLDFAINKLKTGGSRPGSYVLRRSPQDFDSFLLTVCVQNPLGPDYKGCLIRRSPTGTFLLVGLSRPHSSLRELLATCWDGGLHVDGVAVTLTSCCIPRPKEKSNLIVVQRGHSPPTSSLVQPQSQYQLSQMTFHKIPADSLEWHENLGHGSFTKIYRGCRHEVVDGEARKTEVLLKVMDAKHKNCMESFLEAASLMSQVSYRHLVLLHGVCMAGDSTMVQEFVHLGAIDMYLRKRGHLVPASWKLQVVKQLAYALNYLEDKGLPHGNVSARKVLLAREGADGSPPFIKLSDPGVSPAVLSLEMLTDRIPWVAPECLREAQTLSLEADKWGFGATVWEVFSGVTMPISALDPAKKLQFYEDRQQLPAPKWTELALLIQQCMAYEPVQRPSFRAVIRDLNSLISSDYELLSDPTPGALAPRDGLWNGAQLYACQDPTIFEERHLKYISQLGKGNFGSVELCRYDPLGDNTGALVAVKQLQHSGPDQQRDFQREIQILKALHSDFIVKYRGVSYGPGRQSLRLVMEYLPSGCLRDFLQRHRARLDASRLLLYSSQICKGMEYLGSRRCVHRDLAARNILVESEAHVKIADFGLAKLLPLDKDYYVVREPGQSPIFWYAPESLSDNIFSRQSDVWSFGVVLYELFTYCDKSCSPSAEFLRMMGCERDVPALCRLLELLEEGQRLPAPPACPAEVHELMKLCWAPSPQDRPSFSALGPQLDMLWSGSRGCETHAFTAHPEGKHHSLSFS
The test is described as follows: In vitro activity assay of JAK3 kinase (radiometric, [γ-33P]-ATP). It is filed as biochemical. The following applies: recombinant human JAK3, 40 min at room temperature. Here is the method:
as §1, §2
JAK3(h) was incubated with 8 mM MOPS pH 7.0, 0.2 mM EDTA, 500 μM GGEEEEYFELVKKKK (SEQ ID NO: 3), 10 mM magnesium acetate and [γ-^33P]-ATP (the activity and concentration were tailored as required). The reaction was started by adding a Mg/ATP mixture, and terminated by adding 0.5% phosphoric acid after 40 min of incubation at room temperature. 10 μL of the reactant was then dotted on a P30 filter pad, washed three times with 0.425% phosphoric acid and once with methanol within 4 minutes, and dried, and scintillation counting was performed.
as §3

Test [1] concerns collagen-induced arthritis (CIA). The test is described as follows: In vivo efficacy study of collagen-induced arthritis (CIA) in rats. Also on record: species or system Lewis rats. Conditions: 0.1 mg/kg, rat CIA. Here is the method: [table] The compounds of the present application were tested for their therapeutic effect on arthritis using a rat collagen-induced arthritis model. Lewis rats were immunized. The day of the first immunization was recorded as day 0, and the subsequent days were recorded in order. The Lewis rats were anesthetized with isoflurane and injected with 50 μL of prepared collagen emulsion (containing 200 μg of CII) subcutaneously in the tail (2-3 cm away from the base of the tail). On day 21, the same volume of the collagen emulsion was injected in the tail in the same manner. Rats in the normal group were not immunized. On day 27 of the modeling, the rats were divided into groups and administered corresponding test compounds. For example, the female Lewis rats were orally administered different doses (see Table 4-1 for specific doses) of a solution of test compound 4 in a mixed solvent [0.5% HPMC E5/0.5% PVP K30/0.2% SLS in water] twice a day (8 test animals in each dose group). During 14 consecutive days of administration, the states of the rats were observed, and the foot volume swellings were recorded and scored.

T2 sequence (P29597 whole entry): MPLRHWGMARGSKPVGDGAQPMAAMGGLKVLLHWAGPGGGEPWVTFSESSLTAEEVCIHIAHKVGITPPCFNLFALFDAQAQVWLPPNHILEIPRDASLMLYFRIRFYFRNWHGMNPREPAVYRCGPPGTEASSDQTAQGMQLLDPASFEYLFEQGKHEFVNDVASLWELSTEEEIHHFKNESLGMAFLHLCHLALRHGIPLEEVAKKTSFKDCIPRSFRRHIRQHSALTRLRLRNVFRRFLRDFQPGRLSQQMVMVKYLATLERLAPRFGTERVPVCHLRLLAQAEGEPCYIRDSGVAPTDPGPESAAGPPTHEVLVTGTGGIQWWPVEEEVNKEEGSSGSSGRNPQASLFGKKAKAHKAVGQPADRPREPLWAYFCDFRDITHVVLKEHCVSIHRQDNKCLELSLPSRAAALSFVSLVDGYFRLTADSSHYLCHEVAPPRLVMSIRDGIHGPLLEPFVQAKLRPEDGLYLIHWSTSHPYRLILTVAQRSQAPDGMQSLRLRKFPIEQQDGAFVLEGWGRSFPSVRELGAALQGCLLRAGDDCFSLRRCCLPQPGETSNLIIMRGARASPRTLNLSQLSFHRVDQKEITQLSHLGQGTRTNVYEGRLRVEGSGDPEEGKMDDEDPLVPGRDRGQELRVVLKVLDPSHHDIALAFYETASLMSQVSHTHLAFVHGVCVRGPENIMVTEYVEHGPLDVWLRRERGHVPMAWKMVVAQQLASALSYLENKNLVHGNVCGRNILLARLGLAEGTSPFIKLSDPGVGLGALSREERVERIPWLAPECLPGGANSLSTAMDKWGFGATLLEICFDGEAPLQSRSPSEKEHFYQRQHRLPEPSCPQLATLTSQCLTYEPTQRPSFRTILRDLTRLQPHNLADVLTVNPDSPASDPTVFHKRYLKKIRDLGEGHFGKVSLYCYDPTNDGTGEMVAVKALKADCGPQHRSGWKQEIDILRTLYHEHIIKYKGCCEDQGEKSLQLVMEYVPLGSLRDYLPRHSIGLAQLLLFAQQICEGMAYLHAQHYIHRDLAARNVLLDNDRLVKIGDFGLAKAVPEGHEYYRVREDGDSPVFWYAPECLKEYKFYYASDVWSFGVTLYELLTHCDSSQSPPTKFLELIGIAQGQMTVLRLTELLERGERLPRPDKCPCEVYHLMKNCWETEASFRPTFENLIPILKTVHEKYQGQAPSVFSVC
T3 sequence (P23458 whole entry): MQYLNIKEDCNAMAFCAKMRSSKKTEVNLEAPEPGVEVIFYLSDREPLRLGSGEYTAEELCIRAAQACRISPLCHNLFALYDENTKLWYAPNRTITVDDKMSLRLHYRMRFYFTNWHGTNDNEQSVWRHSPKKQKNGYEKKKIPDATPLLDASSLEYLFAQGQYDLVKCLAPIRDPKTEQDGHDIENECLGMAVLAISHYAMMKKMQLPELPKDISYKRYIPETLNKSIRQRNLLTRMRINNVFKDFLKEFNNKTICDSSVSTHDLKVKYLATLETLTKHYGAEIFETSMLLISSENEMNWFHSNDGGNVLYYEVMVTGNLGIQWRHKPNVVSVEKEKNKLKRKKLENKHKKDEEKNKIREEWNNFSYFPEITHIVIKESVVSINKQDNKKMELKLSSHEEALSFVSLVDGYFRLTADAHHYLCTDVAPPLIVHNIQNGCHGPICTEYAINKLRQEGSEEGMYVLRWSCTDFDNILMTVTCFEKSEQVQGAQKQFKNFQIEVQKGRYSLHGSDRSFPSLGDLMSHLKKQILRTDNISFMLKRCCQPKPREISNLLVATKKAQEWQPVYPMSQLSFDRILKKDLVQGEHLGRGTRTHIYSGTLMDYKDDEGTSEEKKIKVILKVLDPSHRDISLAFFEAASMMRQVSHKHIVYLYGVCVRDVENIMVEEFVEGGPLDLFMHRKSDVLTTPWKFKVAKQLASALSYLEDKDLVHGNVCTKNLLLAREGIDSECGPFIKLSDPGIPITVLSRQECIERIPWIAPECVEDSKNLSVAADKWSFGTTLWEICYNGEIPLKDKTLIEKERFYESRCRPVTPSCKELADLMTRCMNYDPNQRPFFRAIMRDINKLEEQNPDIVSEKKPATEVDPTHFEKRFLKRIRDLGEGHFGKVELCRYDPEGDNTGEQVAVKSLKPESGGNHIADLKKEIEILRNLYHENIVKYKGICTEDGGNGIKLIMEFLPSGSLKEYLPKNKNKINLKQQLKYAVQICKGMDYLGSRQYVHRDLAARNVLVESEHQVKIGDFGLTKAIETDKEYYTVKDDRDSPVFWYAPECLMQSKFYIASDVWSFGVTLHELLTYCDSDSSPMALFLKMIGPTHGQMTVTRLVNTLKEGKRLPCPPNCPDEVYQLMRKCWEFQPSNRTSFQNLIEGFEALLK
T1 sequence (O60674 whole entry): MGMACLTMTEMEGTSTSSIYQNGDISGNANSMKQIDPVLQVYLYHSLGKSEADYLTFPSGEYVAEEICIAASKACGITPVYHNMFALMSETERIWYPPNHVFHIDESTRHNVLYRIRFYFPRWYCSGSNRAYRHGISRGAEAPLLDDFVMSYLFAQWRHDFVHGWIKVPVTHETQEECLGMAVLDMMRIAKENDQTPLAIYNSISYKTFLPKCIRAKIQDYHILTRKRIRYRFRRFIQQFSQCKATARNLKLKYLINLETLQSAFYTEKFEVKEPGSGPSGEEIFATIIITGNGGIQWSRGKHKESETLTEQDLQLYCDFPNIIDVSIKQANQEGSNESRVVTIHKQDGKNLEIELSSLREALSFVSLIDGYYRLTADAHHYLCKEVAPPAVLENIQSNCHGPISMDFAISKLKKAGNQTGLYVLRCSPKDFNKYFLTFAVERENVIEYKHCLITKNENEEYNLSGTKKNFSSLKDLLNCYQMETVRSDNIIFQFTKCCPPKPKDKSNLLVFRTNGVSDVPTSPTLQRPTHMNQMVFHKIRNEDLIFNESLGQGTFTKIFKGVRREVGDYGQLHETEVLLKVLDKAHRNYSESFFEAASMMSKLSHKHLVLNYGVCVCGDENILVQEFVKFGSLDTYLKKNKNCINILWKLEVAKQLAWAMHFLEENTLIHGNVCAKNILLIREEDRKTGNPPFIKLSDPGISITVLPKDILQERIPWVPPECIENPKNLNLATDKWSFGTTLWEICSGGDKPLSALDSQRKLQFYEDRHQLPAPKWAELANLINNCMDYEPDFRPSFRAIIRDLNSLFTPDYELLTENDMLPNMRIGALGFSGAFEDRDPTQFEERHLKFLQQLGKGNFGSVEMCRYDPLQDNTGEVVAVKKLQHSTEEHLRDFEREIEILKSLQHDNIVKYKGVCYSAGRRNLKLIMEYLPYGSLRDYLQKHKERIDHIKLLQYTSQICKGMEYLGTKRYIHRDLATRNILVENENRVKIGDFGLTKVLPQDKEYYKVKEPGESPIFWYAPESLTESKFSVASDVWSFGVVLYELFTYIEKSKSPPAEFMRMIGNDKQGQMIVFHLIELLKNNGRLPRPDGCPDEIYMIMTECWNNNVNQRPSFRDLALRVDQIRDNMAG

In general, IC50 refers to the concentration needed to halve the response being measured. As to `Cc1nc2cnc3[nH]ccc3c2n1C1CCc2cc(C#N)nn2C1` (single isomer, unassigned) [Compound 2A], the IC50 at JAK2(h) was 2 nM; on TYK2(h), 2 nM; at JAK1(h), less than 1 nM; on JAK3(h), 25 nM.
As for `N#Cc1cc2n(n1)CC(n1c(C(F)(F)F)nc3cnc4[nH]ccc4c31)CC2` (single isomer, unassigned) [Compound 3A], the IC50 at JAK2(h) is 62 nM; at TYK2(h), 57 nM; on JAK1(h), 3 nM; on JAK3(h), 217 nM.
`C[C@@H](O)c1nc2cnc3[nH]ccc3c2n1[C@@H]1CCc2cc(C#N)nn2C1` [Compound 5]: the IC50 at JAK2(h) was found to be 250 nM; on TYK2(h), 231 nM; on JAK1(h) it was 9 nM; at JAK3(h), 576 nM.
For the molecule `COc1nc2cnc3[nH]ccc3c2n1[C@H]1CCc2cc(C#N)nn2C1` [Compound 6], the IC50 on JAK2(h) was 70.2 nM; at TYK2(h) it was 130 nM; on JAK1(h), 2.3 nM; on JAK3(h), 73.8 nM.
Take `C[C@@H](O)c1nc2cnc3[nH]ccc3c2n1[C@H]1CCc2cc(C#N)nn2C1` [Compound 7]: the IC50 at JAK2(h) worked out at 53.9 nM; on TYK2(h), 12.4 nM; on JAK1(h) it was 0.3 nM; at JAK3(h), 38.4 nM.
`C[C@@H]1C[C@H]2[C@@H]3CCC4=CC(=O)C=C[C@]4(C)[C@@]3(F)[C@@H](O)C[C@]2(C)[C@@]1(O)C(=O)CO` [Dexamethasone, reference compound]: in test [1], the “Clinical score (on day 14 of administration) Mean ± SEM” value came out at 0.00 ± 0.00 and the Foot volume (mL, on day 14 of administration) Mean ± SEM came out at 1.22 ± 0.042 mL.
